The source of these data is patent US8076311B2, “Compositions and methods for modulating the immune system” (priority 2006, dated 2011).

Where two headings read alike, the source gives them in different places.

Data set [1] concerns B lymphocyte. Kind of data set: Patient case study: B lymphocyte competence (proliferation in response to PWM). It is filed as in vivo, human. How it is done: (§1) The patient was treated with a Formula 2 compound and blood cell parameters were monitored. The sample size for this experiment was 1, consisting of subject 1. Subject 1 is an immune comprised patient with multiple recurrent infectious bouts requiring hospitalization while in a nearly moribund condition began treatment with the experimental drug Isopentyl adenosine (IPA).
(§2) The subject initially received IPA (see FIGS. 1 and 2). T and B lymphocyte competence as measured by the ability of these cells to proliferate in response to specific stimulating mitogens (PHA for T cells and PWM for B cells) which was monitored on a weekly basis until death. As shown in FIGS. 1 and 2 respectively the subject's T and B lymphocyte competence on was well below normal.

Data set [2] has as its system T lymphocyte. Kind of data set: Patient case study: T lymphocyte competence (proliferation in response to PHA). It is filed as in vivo, human. How it is done:
as §1, §2

In data set [3] the test system is immune comprised patient. Kind of data set: Patient case study: clinical status. It is filed as in vivo, human. On the procedure:
The patient was treated with a Formula 2 compound and blood cell parameters were monitored. The sample size for this experiment was 1, consisting of subject 1. Subject 1 is an immune comprised patient with multiple recurrent infectious bouts requiring hospitalization while in a nearly moribund condition began treatment with the experimental drug Isopentyl adenosine (IPA). The subject had been hospitalized with avert life-threatening infections. The subject's total white blood cell counts were in the range of 2200-4900 for the three month period preceding hospitalization. […] The patient was hospitalized from depression, exhaustion, bronchial infection, severe diarrhea, severe weight loss and complete loss of appetite and spiked fever. The patient's weight was 98 pounds.

Data set [4] deals with T lymphocyte. The note with it: patients receiving immune stimulating agents; cited from earlier work.
The test system of data set [5] is irradiated animals. Kind of data set: Effect of oltipraz on haematological parameters and body weight of irradiated animals. As to conditions: for Body weight on day 6: 750 rads, p>0.05.
The test system of data set [6] is lipid peroxidation. As to conditions: group III; day 15; liver; p<−0.001. On the procedure:
The liver of the sacrificed animals were excised quickly washed in ice-cold saline and kept at −70° C. till the day of analysis. On the day of analysis 25% homogenate was pre-pared in tris-HCl buffer (0.1 M, pH 7.4). The homogenate was centrifuged at 12000 rpm for 30 minutes and supernatant was used to determine the tissue lipid peroxide levels (LPO) using the TBA method of Okhawa et al.

For data set [7], the system named is bone marrow cells. The note with it: after the 15th day of post-irradiation. How it is done: (§3) Thirty six animals were divided into four groups of nine animals each. […] Group 4 was treated as normal animals without any treatment. On days 5, 10 and 15 after irradiation (750) rads three animals from each group was sacrificed. Blood was collected to heparinized tubes, and plasma was removed and following parameters were assayed in the blood. Activity of the enzyme SOD was measured by NBT reduction method of McCord and Fridovich. CAT activity was estimated by the method of Aebi by measuring the rate of decomposition of hydrogen peroxide at 240 nm. Level of GSH was assayed by the method of Moron et al based on the reaction with DTBN. Assay of GPX followed the method of Hafeman based on the degradation of H2O2 in the presence of GSH. The method of Habig was followed to assay the activity of GST based on the rate of increase in the conjugate formation between GSH and CDNB.
The femurs of three above animals were dissected out and bone marrow cells were flushed into phosphate buffered saline (pH 7.4) containing 2% foetal calf serum. The cells were washed and bone marrow viability was determined by the method of Sredni. The results were expressed as number of live bone marrow cells ×10(6)/femur.

Data set [8] concerns SOD. The note with it: continuous administration; maximum value on the 15th day after irradiation. How it is done: as §3
The test system of data set [9] is GST. As to conditions: group III; 15th day; p<−0.01. On the procedure:
as §3

The test system of data set [10] is GPX. The note with it: group III; 15th day after irradiation; p<−0.001. How it is done: as §3
For data set [11], the system named is CAT. As to conditions: continuous administration; maximum on tenth day after irradiation. How it is done:
as §3

The subject of data set [12] is GSH. As to conditions: oltipraz continuously administered group; 15th day; p<0.001. How it is done: as §3
[13] abbreviates: resumed for one week with one-half the recommended dosage.
[14] abbreviates: within 7 days of drug therapy initiation.
The mark [15] stands for this setting: within a month of resuming therapy at recommended dose levels.
The mark [16] stands for this setting: first period of constant oral doses of IPA.

Regarding `CC(C)=CCNc1ncnc2c1ncn2[C@@H]1O[C@H](CO)[C@@H](O)[C@H]1O` [IPA, N6-(Δ2-isopentenyl) adenosine], the B lymphocyte activity result in data set [1] (setting [13]) is on record as “slight rise”. Also, the “Time to major rapid recovery of B lymphocyte competence after initiation of therapy” value in data set [1] (subject 1, oral IPA) was “less than 7 days”. Besides, the “Level of B lymphocyte competence” value in data set [1] (setting [14]) is on record as “above the lower limits-of the normal donor's reactivity”. The B lymphocyte competence entry in [1] (setting [15]) is on record as “somewhat below lower normal limits”. Further, the T lymphocyte competence result in data set [2] (dosage greatly (>3×) increased) is reported as “depression suggesting immunotoxicity”; in data set [2] (setting [13]), “spiked dramatically to above the lower limit of the normal range”; in data set [2] (setting [15]), “well within the range of normal donor reactivity”; in data set [2] (within two weeks of resuming therapy at recommended dose levels), “nearly within the normal range”. For the same compound, the “Time to major rapid recovery of T lymphocyte competence after initiation of therapy” value in data set [2] (subject 1, oral IPA) is “less than 7 days”. Moreover, the “Level of T lymphocyte competence” value in [2] (setting [14]) was “above the lower limits-of the normal donor's reactivity”. The Fever and diarrhea entry in [3] (setting [16]) was “completely subsided”. This compound also registered a Weight gain in data set [3] (setting [16]) of 15 pound. Further, the “Life after initiation of therapy” value in data set [3] (patient terminally moribund at start) was 5 months.

For `c1ccc([C@H]2CN3CCSC3=N2)cc1` [Levamisole], the “Immune recovery capacity compared with IPA” value in data set [4] is “slower and less dramatic”.

Consider `Cc1c(-c2cnccn2)ssc1=S` [oltipraz], for which the “Body weight on day 6” value was 21.02±4.14 in [5] (group II: oltipraz 50 mgs/Kg ten days prior to irradiation); 21.10±2.51 in data set [5] (group III: oltipraz 50 mgs/Kg ten days prior to and fifteen days after irradiation). Besides, in data set [5] (group III (oltipraz continuously administered) compared with group I (radiation alone) and group II), the “WBC at later days after irradiation” value is “significantly elevated WBC”. In addition, the Differential count entry in data set [5] (irradiated mice, oltipraz groups) is reported as “did not show any significant variation”. Also, in data set [5] (oltipraz 50 mgs/Kg, irradiated mice, versus radiation alone), the Total leukocyte count result is reported as “increase the count”. In data set [5] (oltipraz continuously administered group, day 6), this compound came in with a Hemoglobin level of 12.42±2.76. For the same compound, the Lipid peroxidation in [6] is given as 2.12±0.21 nano-moles of MDA formed/mg of protein. In addition, the Bone marrow viability in data set [7] (group II (oltipraz pre treated)) is 5.82 ×10^6 cells/femur; in data set [7] (group III (oltipraz continuously administered)), 14.32 ×10^6 cells/femur. For the same compound, the SOD activity entry in [8] is listed as “enhanced”. Besides, the GST activity in data set [9] is 2.38±0.25 nano-moles of CDNB-GSH conjugate formed. Moreover, the GPX activity in data set [10] is listed as 1927.87±136.06 U/L of haemolysate. Also, in data set [11], the CAT activity entry is on record as “enhanced”. Further, the “Levels of GSH compared with radiation alone treated group” value in data set [12] is listed as “increased almost three times”.
